Assay results: PubChem BioAssay (NCI)
“And” between values parts separate entries of the source, which are not always exact repeats. Identical values can stand only once.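 Briefly, cells in 96-well plates were exposed to five compound concentrations for 48 h, and endpoints were estimated by linear interpolation. GI50 is the concentration that inhibits growth by half. TGI marks complete inhibition of growth.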

Columns and labels:
Assay in all cases: NCI anticancer screen, dose series, 48 h
[1] = system: SF-539 CNS
[2] = system: RXF 393 renal
[3] = system: HOP-62 NSCLC
[4] = system: HCT-116 colon
[5] = system: ACHN renal
[6] = system: NCI-H226 lung
[7] = system: U251 CNS
[8] = system: SW-620 colon
[9] = system: EKVX NSCLC
[10] = system: COLO 205 colon

| SMILES | TGI [1] | TGI [2] | TGI [3] | TGI [4] | TGI [5] | TGI [6] | TGI [7] | TGI [8] | TGI [9] [µM] | TGI [10] | GI50 [10] | GI50 [1] | GI50 [2] | GI50 [3] | GI50 [4] | GI50 [5] | GI50 [6] | GI50 [7] | GI50 [8] | GI50 [9] [µM] |
| --- | --- | --- | --- | --- | --- | --- | --- | --- | --- | --- | --- | --- | --- | --- | --- | --- | --- | --- | --- | --- |
| O=c1oc2ccccc2cc1-c1ccc([N+](=O)[O-])cc1 | > 100 µM | > 100 µM | > 100 µM | > 100 µM | > 100 µM | > 100 µM | > 51.9 µM | > 100 µM | > 100 | > 100 µM |  |  |  |  |  |  |  |  |  |  |
| CC1=C2C(=CC(C)(CO)C2O)C(=O)C(C)(O)C12CC2 (stereo not drawn) | 0.0152 µM | 0.00569 µM | 0.0147 µM | 0.0478 µM | 0.0132 µM | 0.015 µM | 0.0211 µM | 0.0585 µM | 0.0335 | 0.0115 µM | 0.00454 µM |  |  |  |  |  |  |  |  |  |
| Cc1ccc2c(/C=C/C(=O)c3cc(CN4CCOCC4)c(O)c4nc(C)ccc34)cc(CN3CCOCC3)c(O)c2n1 | 2.02 µM | 2.27 µM | 11.8 µM | 3.41 µM | 2.06 µM | 4.13 µM | 2.58 µM | 2.4 µM | 13.6 | 4.49 µM | 1.82 µM | 0.459 µM | 0.851 µM | 0.739 µM | 0.412 µM | 0.535 µM | 1.24 µM | 0.412 µM | 0.485 µM | 2.1 |
| O=C(O)CSCC(=O)c1ccccc1 | > 100 µM | > 100 µM | > 100 µM | > 100 µM | > 100 µM | > 100 µM | > 100 µM | > 100 µM | > 100 | > 100 µM |  |  |  |  |  |  |  |  |  |  |
| O=C(Oc1cccc(Nc2ncnc3ccccc23)c1)c1ccccc1Cl | 88.9 µM | 70.6 µM | 83.9 µM | 33 µM | 62 µM | 43.8 µM | 63.5 µM | 49.2 µM | 91.5 | > 100 µM | 24 µM | 30.5 µM | 24.8 µM | 25.6 µM | 14.7 µM | 23.1 µM | 16.3 µM | 25.4 µM | 21.8 µM | 7.4 |
| CC(C)(C)[Si](C)(C)OC1[C@@H](O[Si](C)(C)C(C)(C)C)[C@@H](CNC(=O)NC(=O)NC(=O)CI)O[C@H]1n1cnc2c(NC(=O)Nc3ccccc3)ncnc21 (stereo partly drawn) | 1.16 µM | 3.11 µM | 1.28 µM | 9.08 µM | 9.75 µM | 20.6 µM | 1.88 µM | 12.6 µM | 1.14 | 13.2 µM | 6.11 µM | 0.441 µM | 0.713 µM | 0.392 µM | 2.82 µM | 1.41 µM | 10.4 µM | 0.443 µM | 3.38 µM | 0.236 |
| COc1cc2c3c(n(CCCO)c(=O)c2cc1OC)-c1cc2c(cc1C3=O)OCO2 | 6.79 µM | > 94.6 µM | 78.3 µM | > 38.6 µM | 9.83 µM | 50.9 µM | 27.8 µM | > 100 µM | > 100 | 98 µM | 26.4 µM |  | 27.1 µM | 4.28 µM | 2.96 µM | 1.65 µM | 3.85 µM | 2.63 µM | 4.75 µM | 54.7 |
| Cc1c2cc[n+](C)cc2c(C)c2c1[nH]c1ccc(OC(C)C)cc12 | 9.82 µM and 12.5 µM | > 100 µM | 19.9 µM and 27.3 µM | > 35.8 µM and 20.4 µM | > 100 µM | 2.42 µM and 6.12 µM | 2.93 µM and 9.46 µM | 37.9 µM and 21.3 µM | > 100 | 3.08 µM and 2.97 µM |  |  | 7.26 µM and 20.4 µM | 1.23 µM and 3.13 µM |  |  | 0.395 µM and 1.07 µM | 0.145 µM and 0.39 µM |  |  |
| C=C(CN1CCc2ccccc2C1)c1ccc(/C=C/C(=O)Nc2ccccc2N)cc1 | > 100 µM | > 100 µM | > 100 µM | 5.7 µM | > 100 µM | 25.4 µM | 27.8 µM | > 100 µM | > 100 | > 100 µM | 32.2 µM | 13 µM | 12.1 µM | 5.17 µM | 1.59 µM | 5.4 µM | 2.64 µM | 3.42 µM | 5.07 µM | 10.4 |
| CC1/C=C/C=C/CC/C=C/C=C/C=C/C=C/C(OC2OC(C)C(O)C(N)C2O)CC2OC(CC(O)C(O)CCC(O)CC(O)CC(O)CC(=O)OC(C)C(C)C1O)CC(O)C2C(=O)O (stereo not drawn) | 32.3 µM and 64.1 µg/mL | 27.3 µM and 40.5 µg/mL | 35.8 µM and 55.3 µg/mL | 32.1 µM and 112 µg/mL | 32.3 µM and 42.7 µg/mL | 28.3 µM and 53.6 µg/mL | 32.4 µM and 150 µg/mL | 42.2 µM and 46 µg/mL | 30.9 | 56.8 µM and 150 µg/mL | 81.7 µg/mL | 28 µg/mL | 19.5 µg/mL | 25.4 µg/mL | 37.7 µg/mL | 22.8 µg/mL | 28.7 µg/mL | 69.1 µg/mL | 25.4 µg/mL |  |
